# Results reported in ChEMBL document CHEMBL4402540, “Structure-Activity Relationship Studies of Small Molecule Modulators of the Staphylococcal Accessory Gene Regulator” (J Med Chem, 2020).
# Where a SMILES comes first, the peptide text is derived from it. Bridges are numbered along the chain shown (N, C = ends). [ ]: non-standard residue; d: D form. The star is where a group is joined. X2 = O=C(c1ccccc1)c1ccc(OCCCC(=O)*)cc1; X1 = O=C(CCCOc1ccc(Cc2ccccc2)cc1)*; Dap = NC[C@H](N)C(=O)O
# Tests used:
# [1] = Inhibition of AgrC-1 in Staphylococcus aureus
# [2] = Inhibition of AgrC-2 in Staphylococcus aureus
# [3] = Inhibition of AgrC-3 in Staphylococcus aureus
# [4] = Inhibition of AgrC-4 in Staphylococcus aureus
# [5] = Inhibition of AgrC-1 Staphylococcus aureus RN10829 incubated for 45 mins by beta-lactamase reporter gene assay
# [6] = Inhibition of AgrC-1 in Staphylococcus aureus AH1677 incubated for 24 hrs by fluorescence assay
# [7] = Inhibition of AgrC-2 in Staphylococcus aureus AH430 incubated for 24 hrs by fluorescence assay
# [8] = Inhibition of AgrC-3 in Staphylococcus aureus AH1747 incubated for 24 hrs by fluorescence assay
# [9] = Inhibition of AgrC-4 in Staphylococcus aureus AH1872 incubated for 24 hrs by fluorescence assay
# [10] = Inhibition of AgrC-2 in Staphylococcus aureus RN9372 by beta-lactamase reporter gene assay
# [11] = Inhibition of AgrC-2 in Staphylococcus aureus RN9532 by beta-lactamase reporter gene assay
# [12] = Agonist activity at AgrC-4 in Staphylococcus aureus RN9371 by beta-lactamase reporter gene assay
# [13] = target: T1, Chloramphenicol acetyltransferase (Staphylococcus epidermidis) (UniProt D2JCN2); test: Activation of Chloramphenicol acetyltransferase activity in Staphylococcus epidermidis Tu3298 at 200 nM and measured every 15 sec for 20 mins (reference value: 12.5 U/mg)
# T1 sequence (whole entry): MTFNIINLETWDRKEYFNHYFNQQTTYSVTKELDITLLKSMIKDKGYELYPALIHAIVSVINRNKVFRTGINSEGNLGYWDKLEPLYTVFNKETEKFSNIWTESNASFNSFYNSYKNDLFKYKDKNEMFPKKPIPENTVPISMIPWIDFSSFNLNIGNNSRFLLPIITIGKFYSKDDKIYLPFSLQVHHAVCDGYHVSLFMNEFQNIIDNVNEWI
# [14] = target: T2, Receptor-histidine kinase AgrC (Staphylococcus aureus, UniProt O07911); test: Inhibition of AgrC in mid-exponential phase Staphylococcus aureus RN6390B assessed as beta-lactamase activity incubated for 80 mins by spectrophotometric method
# T2 sequence (O07911 whole entry): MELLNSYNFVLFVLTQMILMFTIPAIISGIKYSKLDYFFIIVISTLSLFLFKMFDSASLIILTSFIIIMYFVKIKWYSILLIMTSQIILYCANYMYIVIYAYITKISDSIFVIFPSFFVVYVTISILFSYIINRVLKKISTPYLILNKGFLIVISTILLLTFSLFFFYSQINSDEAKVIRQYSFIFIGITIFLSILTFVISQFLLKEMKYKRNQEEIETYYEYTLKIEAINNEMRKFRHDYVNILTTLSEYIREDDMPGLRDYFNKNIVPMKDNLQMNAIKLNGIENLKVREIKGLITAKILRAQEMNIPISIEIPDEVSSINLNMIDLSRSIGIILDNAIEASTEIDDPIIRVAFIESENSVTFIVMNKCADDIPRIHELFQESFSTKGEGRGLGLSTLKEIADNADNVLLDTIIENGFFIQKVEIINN
# [15] = test system: Staphylococcus aureus; test: Agonist activity at AgrC-4 in Staphylococcus aureus RN9371 incubated for 60 to 90 mins by beta-lactamase reporter gene assay
# [16] = test system: Staphylococcus aureus; test: Agonist activity at AgrC-1 in Staphylococcus aureus RN9222 incubated for 60 to 90 mins by beta-lactamase reporter gene assay
# [17] = Inhibition of AgrC-2 in Staphylococcus aureus RN9372 incubated for 60 to 90 mins in presence of AIP agonist by beta-lactamase reporter gene assay
# [18] = Agonist activity at AgrC-3 in Staphylococcus aureus incubated for 60 to 90 mins in presence of AIP agonist by beta-lactamase reporter gene assay
# [19] = Inhibition of AgrC-1 Staphylococcus aureus RN6390B by agr-blaZ reporter gene assay
# [20] = Inhibition of AgrC-2 Staphylococcus aureus SA564 by agr-blaZ reporter gene assay
compound,measurement,setting,value
CC[C@H](C)[C@H]1NC(=O)[C@@H](Cc2ccccc2)NC(=O)[C@@H](C)NC(=O)[C@H](NC(C)=O)CSC(=O)[C@@H](CCSC)NC1=O,IC50,[1],5 nM
same,IC50,[2],5 nM
same,IC50,[3],0.1 nM
same,IC50,[4],5 nM
CC[C@H](C)[C@H]1NC(=O)[C@@H](Cc2ccccc2)NC(=O)[C@@H](C)NC(=O)[C@H](NC(=O)[C@H](NC(=O)[C@@H](CO)NC(=O)[C@H](N)Cc2ccc(O)cc2)[C@@H](C)O)CSC(=O)[C@@H](CCSC)NC1=O,IC50,[1],5 to 303 nM
same,IC50,[2],8 to 18 nM
same,IC50,[3],0.3 nM
same,IC50,[4],3 nM
CC(=O)N[C@H]1CSC(=O)[C@@H](CC(C)C)NC(=O)[C@@H](CC(C)C)NC(=O)[C@@H](Cc2ccccc2)NC(=O)[C@@H](CC(=O)O)NC1=O,IC50,[5],16.8 nM
CC(C)C[C@H]1NC(=O)[C@@H](Cc2ccccc2)NC(=O)[C@@H](CC(=O)O)NC(=O)[C@@H](NC(=O)[C@@H](Cc2ccccc2)NC(=O)[C@@H]2CCCN2C(=O)[C@H](N)Cc2ccc(O)cc2)CSC(=O)[C@@H](CC(C)C)NC1=O,IC50,[5],0.31 nM
CC[C@@H](C)[C@H](NC(C)=O)C(=O)N[C@H](CC(N)=O)C(=O)N[C@@H]1CSC(=O)[C@@H](Cc2ccccc2)NC(=O)[C@@H](CC(C)C)NC(=O)[C@@H](CC(C)C)NC(=O)[C@@H](C)NC1=O,IC50,[1],0.5 nM
same,IC50,[2],0.4 nM
same,IC50,[3],0.05 nM
same,IC50,[4],0.03 nM
same,IC50,[6],0.485 to 2.9 nM
same,IC50,[7],0.429 to 3.5 nM
same,IC50,[8],0.0506 to 0.35 nM
same,IC50,[9],0.0349 to 0.75 nM
CC[C@H](C)[C@H](NC(=O)[C@@H](N)CC(=O)O)C(=O)N[C@H]1CSC(=O)[C@H](Cc2ccccc2)NC(=O)[C@H](Cc2ccc(O)cc2)NC(=O)[C@H](C)NC(=O)[C@H](CC(N)=O)NC1=O (H-DICNAYF; thioester 3-C),IC50,[10],419 nM
same,IC50,[11],36.6 nM
same,IC50,[12],> 1000 nM
CC(C)[C@H](NC(=O)[C@H](CO)NC(=O)[C@@H](N)CC(=O)O)C(=O)N[C@H]1CSC(=O)[C@H](Cc2ccccc2)NC(=O)[C@H](Cc2ccc(O)cc2)NC(=O)[C@H](CO)NC(=O)[C@H](C)NC1=O (H-DSVCASYF; thioester 4-C),IC50,[10],> 1000 nM
same,IC50,[11],13 nM
same,IC50,[12],> 1000 nM
same,Activity,[13],53.3 U/mg
CC(C)C[C@@H]1NC(=O)[C@H](CO)NC(=O)[C@H](CO)NC(=O)[C@@H](NC(=O)[C@H](C)NC(=O)[C@H](CC(N)=O)NC(=O)[C@@H](NC(=O)CN)C(C)C)COC(=O)[C@H](Cc2ccccc2)NC1=O (H-GVNASSSLF; ester 5-C),IC50,[14],7.9 nM
CC(C)C[C@@H]1NC(=O)[C@H](CO)NC(=O)[C@H](CO)NC(=O)[C@@H](NC(=O)[C@H](C)NC(=O)[C@H](CC(N)=O)NC(=O)[C@@H](NC(=O)CN)C(C)C)CNC(=O)[C@H](Cc2ccccc2)NC1=O (H-GVNA[Dap]SSLF; lactam 5-C),IC50,[14],< 1 nM
CC[C@H](C)[C@@H]1NC(=O)[C@H](Cc2ccccc2)NC(=O)[C@H](Cc2ccc(O)cc2)NC(=O)[C@@H](NC(=O)[C@@H](NC(=O)[C@H](CO)NC(=O)[C@@H](N)Cc2ccc(O)cc2)[C@@H](C)O)CSC(=O)[C@H](CCSC)NC1=O (H-YSTCYFIM; thioester 4-C),ED50,[15],13 nM
same,ED50,[16],62 nM
same,IC50,[17],4 nM
same,IC50,[18],1 nM
CC[C@H](C)[C@@H]1NC(=O)[C@H](Cc2ccccc2)NC(=O)[C@H](C)NC(=O)[C@@H](NC(=O)[C@@H](NC(=O)[C@H](CO)NC(=O)CCCOc2ccc(Cc3ccccc3)cc2)[C@@H](C)O)CSC(=O)[C@H](CCSC)NC1=O (X1-STCAFIM; thioester 3-C),IC50,[19],295 nM
same,IC50,[20],19 nM
CC[C@H](C)[C@@H]1NC(=O)[C@H](Cc2ccccc2)NC(=O)[C@H](C)NC(=O)[C@@H](NC(=O)[C@@H](NC(=O)[C@H](CO)NC(=O)CCCOc2ccc(C(=O)c3ccccc3)cc2)[C@@H](C)O)CSC(=O)[C@H](CCSC)NC1=O (X2-STCAFIM; thioester 3-C),IC50,[19],21 nM
same,IC50,[20],4 nM
